Legend:
[1] = biological target: T1, Dpo1 (Saccharolobus solfataricus, UniProt P26811); assay: Fluorescence-based polymerase assay, other pol families; assay type: biochemical, Sulfolobus solfataricus; conditions: 10 μM; 25 nM Dpo1 (B-family)
T1 construct: made in house
T1 sequence (P26811 1-882): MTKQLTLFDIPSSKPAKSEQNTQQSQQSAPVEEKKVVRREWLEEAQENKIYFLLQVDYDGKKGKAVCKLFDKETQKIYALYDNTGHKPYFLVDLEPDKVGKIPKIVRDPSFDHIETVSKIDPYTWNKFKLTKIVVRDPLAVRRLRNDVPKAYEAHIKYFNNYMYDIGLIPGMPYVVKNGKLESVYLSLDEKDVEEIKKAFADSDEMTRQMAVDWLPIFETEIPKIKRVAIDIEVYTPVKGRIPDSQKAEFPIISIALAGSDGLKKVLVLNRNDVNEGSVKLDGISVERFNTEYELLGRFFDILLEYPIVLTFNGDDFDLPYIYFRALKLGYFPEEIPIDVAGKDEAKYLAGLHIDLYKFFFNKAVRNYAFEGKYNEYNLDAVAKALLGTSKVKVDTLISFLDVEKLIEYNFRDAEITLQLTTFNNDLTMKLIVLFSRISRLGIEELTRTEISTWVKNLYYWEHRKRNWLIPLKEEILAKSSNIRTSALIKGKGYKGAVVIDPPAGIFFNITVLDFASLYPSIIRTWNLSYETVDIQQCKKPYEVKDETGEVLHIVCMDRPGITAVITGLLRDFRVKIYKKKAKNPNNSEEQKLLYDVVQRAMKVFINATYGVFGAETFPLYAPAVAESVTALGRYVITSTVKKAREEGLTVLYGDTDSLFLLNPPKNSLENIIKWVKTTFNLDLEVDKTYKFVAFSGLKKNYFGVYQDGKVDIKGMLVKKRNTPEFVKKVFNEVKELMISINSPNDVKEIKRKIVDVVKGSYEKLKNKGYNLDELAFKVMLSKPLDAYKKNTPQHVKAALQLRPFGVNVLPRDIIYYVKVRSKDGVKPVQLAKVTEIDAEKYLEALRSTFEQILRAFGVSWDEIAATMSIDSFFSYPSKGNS

[2] = tested on: hpol κ-proficient HAP-1 cells; assay: supF mutagenesis assay; conditions: 1 μM IAG-10, 24 h
Method: HAP-1 hpol κ-proficient and hpol κ-deficient cells were cultured in 10 cm dishes to ~80% confluency in Iscove's modified Dulbecco's medium (Invitrogen) containing 10% (v/v) FBS supplemented with Ix antibiotic antimycotic solution (Sigma). They were transfected with unmodified (control) and methylmethanesulfonate (MMS)-modified pSP189 plasmid harboring the supF gene either in the absence or presence of 1 μM IAG-10. For plasmid modification with MMS, the pSP189 plasmid was first incubated with 100 mM MMS in 10 mM HEPES buffer (pH 7.5) containing 50 mM KCl, 5 mM MgCl2, and 1 mM dithiothreitol at RT for 1 h. The MMS-modified plasmid was then purified by ethanol precipitation and used in subsequent transfections, similar to the unmodified plasmid. […] The recovered plasmids (75-100 ng) were then transformed into E. coli MBM7070 strain by electroporation, and the transformed bacterial cells were plated on LB-agar plates containing 100 μg/mL ampicillin, 1 mM isopropyl-I-thio-fi-Dgalactopyranoside (IPTG) and 100 μg/mL X-gaL The resulting blue (nonmutated) and white (mutated) colonies were counted. The mutation frequency was calculated as the ratio of mutant (white) colonies to total (blue+white) colonies. At least 10 000 colonies were counted for each condition, and the results reported represent the mean (±SD) of experiments performed in biological triplicate.

[3] = tested on: T98G spheroids; assay: Spheroid growth rate assay; assay type: cell-based; conditions: 50 nM or 500 nM, with or without TMZ, 12 days
Method: Cell, spheroid and organoid culture. Grade IV glioma cells (T98G) were obtained from the American Type Culture Collection (ATCC). MCF7 cells were a kind gift from Dr. Timothy Chambers (UAMS). The POLKKO T98G cell lines were generated using CRISPR-Cas9 and validated by immunoblotting (data not shown). For normal culture, these cells were grown in minimum essential media (MEM) containing 10% fetal bovine serum (FBS), 1% (v/v) antibiotic/[…] and incubated at 37° C. in 5% CO2.
For spheroid culture, 24 h prior to plating cells, dishes were coated in 1× poly-HEMA (0.6 g poly-2-hydroxyethyl methacrylate into 50 mL 95% EtOH) under sterile conditions and allowed to dry overnight. Coated dishes were hydrated in 1×PBS for 20 min prior to plating. Spheroids were cultured in NeuroCult NS-A basal medium containing NeuroCult NS-A proliferation supplement, 20 ng/mL human recombinant epidermal growth factor (EGF), 10 ng/mL human recombinant basic fibroblast growth factor (bFGF), and 0.0002% heparin (referred to as NS-A complete medium). […]
Spheroid growth rate assay. […] Spheroids with a diameter of 50 µm or larger were counted as true spheroids and an average size was determined for each well. Changes in average size for each well over the growth time was recorded and used to generate the growth rate. […]

## Cl.[H]/N=C(\N)NN=Cc1cn(C(=O)c2cccc3ccccc23)c2ccc(Cl)cc12 [IAG-10, (E)-2-((1-(1-naphthoyl)-5-chloro-1H-indol-3-y1)methylene)hydrazine-1-carboximidamide hydrochloride]
[1]
  polymerase activity relative to DMSO control: only hpol κ activity was inhibited
[2]
  mutation frequency for the undamaged plasmid: did not change the mutation frequency
[2]; MMS-damaged pSP189
  mutation frequency for MMS-damaged DNA over the undamaged control plasmid: approximately twofold
[3]
  glioma spheroid growth rate: inhibits glioma spheroid growth rate on its own and also enhances the effects of TMZ

From patent publication US12685733B2, “Indole molecules and use thereof in the inhibition of DNA polymerases” (BioVentures, LLC, priority 2019, dated 2026)
